Article PMC6893645, “Baicalein as a Potential Inhibitor against BACE1 and AChE: Mechanistic Comprehension through In Vitro and Computational Approaches” (Nutrients, 2019)

Legend:
[1] = biological target: AChE (Electrophorus electricus, UniProt O42275); conditions: Dixon and Lineweaver–Burk plots
Procedure: The colorimetric assays of AChE, trypsin, chymotrypsin, and elastase were carried out using acetylthiocholine iodide, N-benzoyl-L-Tyr-pNA, N-benzoyl-L-Arg-pNA, and N-succinyl-Ala-Ala-Ala-pNA as substrates, respectively. […] All reactions were performed in 96-well plates in triplicate and recorded using a microplate spectrophotometer.
The inhibitory constant (Ki) was obtained by interpretation of the Dixon plot, and maximum reaction velocity (Vmax) and Michaelis–Menten constant (Km) values were determined by a Lineweaver–Burk plot, using the initial velocities obtained over a different substrate concentration ranges.

[2] = cited from earlier work
[3] = parameters: method as in doi:10.1016/j.arabjc.2017.08.002; conditions: chemical scavenging and cellular antioxidant ability among flavonoids of S. baicalensis; cited from earlier work
[4] = biological target: T1, chymotrypsin (Bos taurus, UniProt P00766); assay: Chymotrypsin colorimetric assay; type: biochemical
T1 construct: purchased Sigma-Aldrich (St. Louis, MO, USA)
Procedure: (§1) The colorimetric assays of AChE, trypsin, chymotrypsin, and elastase were carried out using acetylthiocholine iodide, […], and N-succinyl-Ala-Ala-Ala-pNA as substrates, respectively. The hydrolysis of AChE was monitored according to the formation of yellow 5-thio-2-nitrobenzoate anions at 405 nm for 15 min, which were produced by the reaction of DTNB with thiocholine released from ACh. All reactions were performed in 96-well plates in triplicate and recorded using a microplate spectrophotometer.
(§2) For trypsin, chymotrypsin, and elastase assays, enzyme, Tris-HCl buffer (0.05 M, in 0.02 M CaCl2, pH 8.2), and baicalein were incubated for 10 min at 25 °C; then, substrate was added for 30 min at 37 °C. The absorbance was recorded at 410 nm. The inhibition ratio was obtained using the following equation:Inhibition (%) = {[1 − (A − B)]/control} × 100 where A was the absorbance of the control (enzyme, assay buffer, and substrate) after 60 min of incubation, and B was the absorbance of tested sample (assay buffer and sample solution) after 60 min of incubation.

[5] = tested on: trypsin; assay: Trypsin colorimetric assay; type: biochemical; conditions: for Inhibitory activity against Trypsin: mean ± SD
Procedure: as §1, §2

[6] = rat, oral S. baicalensis extract 30 mg/kg; cited from earlier work
[7] = tested on: APP/PS1 mice; conditions: 80 mg/kg; cited from earlier work
[8] = tested on: AlCl3-induced AD mouse model; conditions: cited from earlier work
[9] = biological target: T2, human recombinant TACE (Homo sapiens, UniProt P78536); assay: TACE fluorometric assay; type: biochemical
T2 construct: purchased R&D Systems (Minneapolis, MN, USA)
Procedure: A human recombinant TACE (0.1 ppm in 25 mM Tris buffer), the substrate (APP peptide […] using EDANS/DABCYL), and baicalein were dissolved in an assay buffer and then combined and incubated for 60 min in the dark at 25 °C.

[10] = biological target: T3, elastase (Sus scrofa, UniProt P00772); assay: Elastase colorimetric assay; type: biochemical
T3 construct: purchased Sigma-Aldrich (St. Louis, MO, USA)
Procedure: as §1, §2

[11] = tested on: Tg2576 mice; parameters: method as in PMID 23686791; conditions: 10 mg/kg; cited from earlier work
[12] = humans, 2.8 mg single dose; cited from earlier work
[13] = tested on: BACE1; parameters: method as in PMID 24291393; conditions: cited from earlier work

T2 sequence (P78536 215-824): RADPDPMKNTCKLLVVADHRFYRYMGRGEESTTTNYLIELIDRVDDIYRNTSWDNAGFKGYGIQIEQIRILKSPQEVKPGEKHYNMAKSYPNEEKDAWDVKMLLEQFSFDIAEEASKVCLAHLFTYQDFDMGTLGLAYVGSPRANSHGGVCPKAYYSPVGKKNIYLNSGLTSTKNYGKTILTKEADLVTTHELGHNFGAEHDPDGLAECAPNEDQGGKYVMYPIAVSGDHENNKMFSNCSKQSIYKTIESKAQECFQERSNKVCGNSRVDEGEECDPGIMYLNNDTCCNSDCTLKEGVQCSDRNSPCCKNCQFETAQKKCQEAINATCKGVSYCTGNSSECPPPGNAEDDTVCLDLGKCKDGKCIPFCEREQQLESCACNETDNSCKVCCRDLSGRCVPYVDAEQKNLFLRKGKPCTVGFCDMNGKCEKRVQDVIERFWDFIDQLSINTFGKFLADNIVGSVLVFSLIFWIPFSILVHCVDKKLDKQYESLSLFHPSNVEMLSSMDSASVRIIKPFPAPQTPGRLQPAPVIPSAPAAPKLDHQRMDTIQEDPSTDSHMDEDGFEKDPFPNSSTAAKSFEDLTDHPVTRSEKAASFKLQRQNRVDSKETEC
T3 sequence (P00772 27-266): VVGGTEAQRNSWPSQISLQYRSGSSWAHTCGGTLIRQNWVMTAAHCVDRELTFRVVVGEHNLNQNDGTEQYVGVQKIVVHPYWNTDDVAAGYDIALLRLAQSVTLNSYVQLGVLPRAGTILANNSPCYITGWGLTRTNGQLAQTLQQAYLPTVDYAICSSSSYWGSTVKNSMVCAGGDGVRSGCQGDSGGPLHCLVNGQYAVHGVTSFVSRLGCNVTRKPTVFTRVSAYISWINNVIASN
Sequence of AChE (O42275 24-633): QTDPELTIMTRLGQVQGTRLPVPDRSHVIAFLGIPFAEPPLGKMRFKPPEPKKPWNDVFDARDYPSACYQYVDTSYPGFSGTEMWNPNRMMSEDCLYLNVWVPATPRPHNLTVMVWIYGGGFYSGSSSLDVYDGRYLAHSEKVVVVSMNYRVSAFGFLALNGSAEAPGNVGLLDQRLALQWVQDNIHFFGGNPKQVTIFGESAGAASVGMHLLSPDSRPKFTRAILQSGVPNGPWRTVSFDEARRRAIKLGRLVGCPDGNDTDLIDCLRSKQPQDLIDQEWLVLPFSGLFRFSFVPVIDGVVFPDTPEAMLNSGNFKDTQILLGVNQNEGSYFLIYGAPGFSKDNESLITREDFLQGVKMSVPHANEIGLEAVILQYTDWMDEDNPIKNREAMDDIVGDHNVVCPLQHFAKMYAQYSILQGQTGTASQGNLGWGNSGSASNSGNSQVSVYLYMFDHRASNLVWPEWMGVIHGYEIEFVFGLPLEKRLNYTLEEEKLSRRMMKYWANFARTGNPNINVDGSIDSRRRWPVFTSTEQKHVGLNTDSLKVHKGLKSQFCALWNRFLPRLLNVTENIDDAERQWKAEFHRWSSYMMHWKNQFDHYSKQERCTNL

**Q.** Which “AChE Inhibition Type” value [1] does the source give for `O=c1cc(-c2ccccc2)oc2cc(O)c(O)c(O)c12` [Baicalein, 5,6,7-trihydroxyflavone] here?
**A.** The value was “Competitive”.

**Q.** What about the “Time to cross the BBB after administration” value ([2]; 30 mg/kg) of the same molecule?
**A.** Its value is “about half an hour”.

**Q.** And the BBB penetration ([2]; rat, 30 and 60 mg/kg through the femoral vein)?
**A.** Its BBB penetration is “rapidly penetrated the BBB”.

**Q.** What about the Antioxidant ability [3] of the same molecule?
**A.** The Antioxidant ability was “most powerful antioxidant effect”.

**Q.** And the inhibition at 50 µM ([4]; baicalein 50 μM, mean ± SD, read-out: Inhibitory activity against Chymotrypsin)?
**A.** Its inhibition at 50 µM is 8.42 ± 0.76%.

**Q.** What about the inhibition at 100 µM ([4]; baicalein 100 μM, mean ± SD, read-out: Inhibitory activity against Chymotrypsin) of the same molecule?
**A.** Its inhibition at 100 µM is 4.48 ± 0.76%.

**Q.** What about the “Inhibitory activity against chymotrypsin (in words)” value ([4]; up to 100 µM) of the same molecule?
**A.** The value was “no significant inhibitory activity”.

**Q.** What about the “Inhibitory activity against Trypsin” value ([5]; baicalein 50 μM) of the same molecule?
**A.** Its value is 3.40 ± 0.76%.

**Q.** What about the “Inhibitory activity against Trypsin” value ([5]; baicalein 100 μM) of the same molecule?
**A.** The value was −6.95 ± 0.87%.

**Q.** And the “Inhibitory activity against trypsin (in words)” value ([5]; up to 100 µM)?
**A.** Its value is “no significant inhibitory activity”.

**Q.** What about the “Brain-to-plasma ratio compared with baicalin” value [6] of the same molecule?
**A.** Its value is “twenty times higher”.

**Q.** And the “LOX and GSK3β activity” value [7]?
**A.** The value was “inhibits LOX and GSK3β activity”.

**Q.** What about the Behavioral dysfunction [8] of the same molecule?
**A.** Its Behavioral dysfunction is “improved”.

**Q.** What about the inhibition at 50 µM ([9]; baicalein 50 μM, mean ± SD, read-out: Inhibitory activity against TACE) of the same molecule?
**A.** Its inhibition at 50 µM is 8.31 ± 0.89%.

**Q.** And the inhibition at 100 µM ([9]; baicalein 100 μM, mean ± SD, read-out: Inhibitory activity against TACE)?
**A.** The inhibition at 100 µM was 9.45 ± 0.71%.

**Q.** What about the “Inhibitory activity against TACE (in words)” value ([9]; up to 100 µM) of the same molecule?
**A.** The value was “no significant inhibitory activity”.

**Q.** What about the inhibition at 50 µM ([10]; baicalein 50 μM, mean ± SD, read-out: Inhibitory activity against Elastase) of the same molecule?
**A.** Its inhibition at 50 µM is 10.3 ± 1.04%.

**Q.** What about the inhibition at 100 µM ([10]; baicalein 100 μM, mean ± SD, read-out: Inhibitory activity against Elastase) of the same molecule?
**A.** Its inhibition at 100 µM is 9 ± 0.45%.

**Q.** And the “Inhibitory activity against elastase (in words)” value ([10]; up to 100 µM)?
**A.** The value was “no significant inhibitory activity”.

**Q.** And the Cognitive performance [11]?
**A.** The Cognitive performance was “significantly improves”.

**Q.** And the “Toxicity after single-dose administration” value [12]?
**A.** Its value is “no signs of toxicity”.

**Q.** With `O=c1cc(-c2ccc(O)cc2)oc2cc(O)cc(O)c12` [Apigenin, 4′,5,7-trihydroxyflavone] as the molecule, how does the IC50 [13] read?
**A.** Its IC50 is greater than 100 µM.

**Q.** With `O=c1cc(-c2ccccc2)oc2cc(O)cc(O)c12` [Chrysin, reference compound] as the molecule, how does the Antioxidant ability [3] read?
**A.** Its Antioxidant ability is “much weaker antioxidant ability”.
